Test results reported in patent EP1360959A1, “Use of 8-prenylflavanones for anti-angiogenesis therapy and for fibrinolytic therapy” (Schering Aktiengesellschaft, priority 2002, dated 2003).
Like-named read-outs stand apart in the source and are kept apart here.

Key:
Type in all cases: cell-based, Bovine
PAI-1 [1] = assay: Reverse zymography, PAI-1 activity, BAE cells
Protocol: (§1) Confluent monolayers of BME or BAE cells in 35mm gelatin-coated tissue culture dishes were washed twice with serum-free medium, and were treated with (±)-8-Prenylnaringenin in the absence or presence of bFGF or VEGF in serum-free medium containing Trasylol (200 Kallikrein Inhibitory Units/ml). 15 hours later, cell extracts were prepared and analyzed by zymography and reverse zymography as previously described (Vassalli et al., 1984, J. Exp. Med. 159: 1653-1668).
(§2) Cell extracts (CE) and culture supernatants (Sup) prepared from BAE cells incubated with (±)-8-prenylnaringenin at the indicated concentrations in the absence or presence of bFGF (3ng/ml) for 15 hours, were subjected to zymography (uPA, tPA and tPA/PAI-1 complex activities) and reverse zymography (PAI-1 activity). The second panel marked CE is a longer incubation of the gel shown in the top panel.

tPA [2] = assay: Zymography of cell extracts, tPA activity, BME cells
Protocol: as §1
as §2, with “BME” for “BAE”, “(10ng/ml)” for “(3ng/ml)”, “activity)” for “activity). The second panel marked CE is a longer incubation of the gel shown in the top panel.”

tPA [3] = assay: Zymography of cell extracts, tPA activity, BAE cells
Protocol: as §1, §2

PAI-1 [4] = assay: Reverse zymography, PAI-1 activity, BME cells; details: 15 hours, serum-free
Protocol: as §1
as §2, with “BME” for “BAE”, “(10ng/ml)” for “(3ng/ml)”, “activity)” for “activity). The second panel marked CE is a longer incubation of the gel shown in the top panel.”

uPAR mRNA [5] = assay: Northern blot analysis, uPAR mRNA, BME cells; details: 10µM, after 9 hours
Protocol: (§3) (±)-8-Prenylnaringenin or genistein were added to confluent BME cell monolayers to which fresh medium containing 5% DCS had been added 24 hours previously. Total cellular RNA was prepared after the indicated times using Trizol reagent (Life Technologies AG, Basel, Switzrland) according to the manufacturer's instructions. Northern blots, UV cross-linking and methylene blue staining of filters, in vitro transcription, hybridization and post-hybridization washes were as previously described (Pepper et al., 1990, J. Cell Biol. 111: 743-755). […] Autoradiograms were scanned and quantitated using ImageQuant (Molecular Dynamics, Sunnyvale, CA).
(§4) Replicate filters containing total cellular RNA (5 µg/lane) prepared from confluent monolayers of BME cells incubated in the absence (Control) or presence of 10µM (±)-8-prenylnaringenin for the indicated times, were hybridized with ^32P-labelled cRNA probes. RNA integrity and uniformity of loading were determined by staining the filters with methylene blue after transfer and cross-linking (lower panel of the figure); 28S and 18S ribosomal RNAs are shown.

uPA [6] = assay: Zymography of cell extracts, uPA activity, BAE cells
Protocol: as §1, §2

uPA mRNA [7] = assay: Northern blot analysis, uPA mRNA, BAE cells
uPA mRNA [8] = assay: Northern blot analysis, uPA mRNA, BME cells; details: 10µM, after 9 hours
Protocol: as §3, §4

PAI-1 mRNA = assay: Northern blot analysis, PAI-1 mRNA, BME cells
Protocol: (§5) (±)-8-Prenylnaringenin or genistein were added to confluent BME cell monolayers to which fresh medium containing 5% DCS had been added 24 hours previously. Total cellular RNA was prepared after the indicated times using Trizol reagent (Life Technologies AG, Basel, Switzrland) according to the manufacturer's instructions. Northern blots, UV cross-linking and methylene blue staining of filters, in vitro transcription, hybridization and post-hybridization washes were as previously described (Pepper et al., 1990, J. Cell Biol. 111: 743-755). [^32P]-labelled cRNA probes were prepared from bovine urokinase-type plasminogen activator (u-PA) (Krätzschmar et al., 1993, Gene 125: 177-183), bovine u-PA receptor (u-PAr) (Krätzschmar et al., 1993, Gene 125: 177-183), human tissue-type PA (t-PA) (Fisher et al., 1985, J. Biol. Chem. 260: 11223-11230) and bovine PA inhibitor-1 (PAI-1) (Pepper et al., 1990, J. Cell Biol. 111: 743-755) cDNAs as previously described (Pepper et al., 1990, J. Cell Biol. 111: 743-755). Filters were exposed to Kodak X-OMAT XAR-5 Scientific Imaging Film (Eastman Kodak Co., Rochester, NY). Autoradiograms were scanned and quantitated using ImageQuant (Molecular Dynamics, Sunnyvale, CA).

uPA [9] = assay: Zymography of cell extracts, uPA activity, BME cells; details: 15 hours, serum-free
Protocol: as §1
as §2, with “BME” for “BAE”, “(10ng/ml)” for “(3ng/ml)”, “activity)” for “activity). The second panel marked CE is a longer incubation of the gel shown in the top panel.”

tPA mRNA = assay: Northern blot analysis, tPA mRNA, BME cells; details: 10µM, after 9 hours
Protocol: as §3, §4

BME cells [10] = assay: 5 day proliferation assay; details: Bos taurus; for inhibition at 30 µM: maximal inhibitory effect, read-out: % inhibition of BME cell proliferation
Protocol: BME cells were seeded into gelatin-coated wells of 24 well plates at 10'000 cells per well in α-MEM supplemented with 5% DCS. 24 hours later, fresh medium was added together with 8-Prenylnaringenin at the indicated concentrations or TGF-β1 (1ng/ml), and bFGF (10ng/ml) was added to half the wells. 2 days later, medium and compounds were renewed, and after a further 3 days (i.e. 5 day assay), cells were trypsinized and counted in a FACScan Analyzer. Results are shown as % inhibition calculated from the mean of duplicate wells.
8-Prenylnaringenin reduces endothelial cell number in a 5 day proliferation assay. BME cells were seeded into 24 well plates at 10'000 cells per well in medium containing 5% DCS. 24 hours later, cells were treated with 8-Prenylnaringenin at the indicated concentrations or with TGF-β1 (1ng/ml), and bFGF (10ng/ml) was added to half the wells. Results are shown as % inhibition calculated from the mean of duplicate wells.

tPA [11] = assay: Northern blot analysis, tPA mRNA, BAE cells; details: after 24 hours
BME cells [12] = assay: In vitro angiogenesis assay (invasion of three-dimensional collagen gels)
From the text: bFGF and VEGF induce BME and BAE cells to invade three-dimensional collagen gels, and this is accompanied by the formation of capillary like tubular structures (Montesano et al., Proc. Natl. Acad. Sci. USA 83: 7297-7301, 1986; Pepper et al., Biochem. Biophys. Res. Comm. 189: 824-831, 1992; Pepper et al., Exp. Cell Res. 204: 356-363, 1993, Pepper et al., J. Cell Sci. 108: 73-83, 1995). In addition, bFGF and VEGF induce a synergistic invasive response in BME and BAE cells (Pepper et al., 1992, Biochem. Biophys. Res. Commun. 189: 824-831; Pepper et al 1995, J. Cell Sci. 108: 73-83).
Three-dimensional collagen gels were prepared as described (Montesano et al., Cell 42: 469-477, 1985): 8 volumes of a solution of type I collagen from rat tail tendons (approximately 1.5mg/ml) were mixed with 1 volume of 10x minimal essential medium and 1 volume of sodium bicarbonate (11.76mg/ml) on ice, dispensed into 18mm tissue culture wells, and allowed to gel at 37 °C for 10 minutes. […] Invasion was quantitated by determining the total additive length of all cellular structures which had penetrated beneath the surface monolayer either as apparently single cells or in the form of cell cords (Pepper et al., Biochem. Biophys. Res. Comm. 189: 824-831, 1992). Results are expressed as the mean total additive sprout length in µm ± s.e.m., and are from three separate experiments per condition. […]

uPAR mRNA [13] = assay: Northern blot analysis, uPAR mRNA, BAE cells
Protocol: as §5

BME cells [14] = assay: Toxicity observed in BME cell cultures

IC50 (BME cells [12]; Bos taurus, induced by bFGF (10ng/ml), VEGF (30ng/ml) or both, irrespective of the angiogenic stimulus, read-out: IC50 of inhibition of BME cell invasion): 3 to 10 µM
Compound: CC(C)=CCc1c(O)cc(O)c2c1OC(c1ccc(O)cc1)CC2=O (racemic) [8-Prenylnaringenin, 5,7-Dihydroxy-2-(4-hydroxyphenyl)-8-(3-methylbut-2-enyl)-chroman-4-on]
PAI-1 (PAI-1 [1]): decrease
tPA activity (tPA [2]; 15 hours, serum-free): dose-dependent increase
induction of tPA activity, combination with VEGF (tPA [2]; with VEGF, data not shown): synergize
induction of tPA activity, effect of bFGF co-treatment (tPA [2]; with bFGF (10ng/ml)): potentiates
tPA activity (tPA [3]; 15 hours, serum-free): increased
induction of tPA activity, effect of bFGF co-treatment (tPA [3]; with bFGF (3ng/ml)): potentiates
PAI-1 activity (PAI-1 [4]): reduction
uPAR mRNA steady state level, maximal effect (uPAR mRNA [5]): 6.4 fold increase
uPA activity (uPA [6]; 15 hours, serum-free): increased
bFGF-induced uPA activity (uPA [6]; with bFGF (3ng/ml)): reduces
uPA mRNA levels (uPA mRNA [7]): virtually no effect
uPA mRNA steady state level, maximal effect (uPA mRNA [8]): 7.5 fold increase
levels of PAI-1 mRNA (PAI-1 mRNA): no significant effect
uPA activity (uPA [9]): dose-dependent increase
tPA mRNA steady state level, maximal effect (tPA mRNA): 9.6 fold increase
inhibition at 30 µM (BME cells [10]; absence of bFGF): 67%
inhibition at 30 µM (BME cells [10]; presence of bFGF (10ng/ml)): 75%
IC50 (BME cells [10]; 120 h, 5 day assay, 5% DCS, with or without bFGF, read-out: IC50 of inhibition of BME cell proliferation (cell number)): ~10 µM
tPA levels (tPA [11]): 4.6 fold increase
in vitro angiogenesis induced by bFGF, VEGF or a combination of the bFGF and VEGF (BME cells [12]; BME cells, collagen gel): inhibits
uPAR mRNA levels (uPAR mRNA [13]): virtually no effect
concentration at which frank toxicity was observed (BME cells [14]; 15 hours, absence of serum): 30 µM
concentration at which toxicity was seen (BME cells [14]; presence of 2% serum): 100 µM
